Test system: primary rat mixed cortical cells
Assay: In vitro myelination assay (MBP positive myelin strands, fold myelin pixels above background)
Format: cell-based
Details: Rattus norvegicus, read-out: Fold myelin pixels above background relative to baseline of no added compound; for fold induction at 1 µM: 1.0 μM compound; for fold induction at 10 µM: 10.0 μM compound
Summary of the method: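 Read-out is total MBP-positive myelin strand pixels per well, detected by custom ridge-tracing software and reported as fold over untreated baseline. Primary P1 rat mixed cortical cells received compound (1.0 or 10.0 μM) for 14 days, with medium half-replaced on days 6 and 10. Standard deviation was taken across all replicates.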

| SMILES | fold induction at 1 µM | fold induction at 10 µM |
| --- | --- | --- |
| Cc1cc(NCC2CN(CC(C)C)CCO2)cc(Nc2ncn(-c3cc(F)cc(F)c3)n2)c1 (centres unmarked) [Compound 903, N1-[1-(3,5-difluorophenyl)-1,2,4-triazol-3-yl]-N3-[(4-isobutylmorpholin-2-yl)methyl]-5-methyl-benzene-1,3-diamine] | 10 to 100 | 1 to 10 |
| CCC(CO)N1CCN(c2cc(C)cc(Nc3ncn(-c4cc(F)cc(F)c4)n3)c2)CC1 (centres unmarked) [Compound 904, 2-[4-[3-[[1-(3,5-difluorophenyl)-1,2,4-triazol-3-yl]amino]-5-methyl-phenyl]piperazin-1-yl]butan-1-ol] | ≤ 1 | ≤ 1 |
| Cc1cc(Nc2ncn(-c3cc(F)cc(F)c3)n2)cc(N2CCN(C3CCCC3)C(=O)C2)c1 [Compound 905, 1-cyclopentyl-4-[3-[[1-(3,5-difluorophenyl)-1,2,4-triazol-3-yl]amino]-5-methyl-phenyl]piperazin-2-one] | 1 to 10 | 10 to 100 |
| Cc1cc(Nc2ncn(-c3cc(F)cc(F)c3)n2)cc(N2CCOC3(CCOCC3)CC2)c1 [Compound 906, 1-(3,5-difluorophenyl)-N-[3-(3,7-dioxa-10-azaspiro[5.6]dodecan-10-yl)-5-methyl-phenyl]-1,2,4-triazol-3-amine] | 10 to 100 | 1 to 10 |
| Cc1cc(Nc2ncn(-c3ccccc3)n2)c(F)c(OC2CCOC2)c1 (centres unmarked) [Compound 907, N-(2-fluoro-5-methyl-3-tetrahydrofuran-3-yloxy-phenyl)-1-phenyl-1,2,4-triazol-3-amine] | 10 to 100 | 100 to 1000 |
| Cc1cc(Nc2ncn(-c3ccccn3)n2)c(F)c(N2CCN(C3COC3)CC2)c1 [Compound 908, N-[2-fluoro-5-methyl-3-[4-(oxetan-3-yl)piperazin-1-yl]phenyl]-1-(2-pyridyl)-1,2,4-triazol-3-amine] | 1 to 10 | 10 to 100 |
| Cc1cc(OCC2COC2)cc(Nc2ncn(-c3cc(F)cc(F)c3)n2)c1C [Compound 909, 1-(3,5-difluorophenyl)-N-[2,3-dimethyl-5-(oxetan-3-ylmethoxy)phenyl]-1,2,4-triazol-3-amine] | 1 to 10 | 10 to 100 |
| Cc1cc(NC(=O)NC2CCC2)cc(Nc2ncn(-c3ccccc3)n2)c1 [Compound 910, 1-cyclobutyl-3-[3-methyl-5-[(1-phenyl-1,2,4-triazol-3-yl)amino]phenyl]urea] | 1 to 10 | 10 to 100 |
| Cc1cc(Nc2ncn(-c3cc(F)cc(F)c3)n2)cc(N2CCCC(N3CCOCC3)C2)c1 (centres unmarked) [Compound 911, 1-(3,5-difluorophenyl)-N-[3-methyl-5-(3-morpholino-1-piperidyl)phenyl]-1,2,4-triazol-3-amine] | 1 to 10 | 1 to 10 |
| Cc1cc(Nc2ncn(-c3cc(F)cc(F)c3)n2)cc(NC2CCCC2N2CCOCC2)c1 (centres unmarked) [Compound 912, N3-[1-(3,5-difluorophenyl)-1,2,4-triazol-3-yl]-5-methyl-N1-(2-morpholinocyclopentyl)benzene-1,3-diamine] | 1 to 10 | 1 to 10 |
| Cc1cc(Nc2ncn(-c3cccc(F)c3)n2)c(F)c(OC2CCOC2)c1 (centres unmarked) [Compound 913, N-(2-fluoro-5-methyl-3-tetrahydrofuran-3-yloxy-phenyl)-1-(3-fluorophenyl)-1,2,4-triazol-3-amine] | 10 to 100 | 10 to 100 |
| Cc1cc(Nc2ncn(-c3cc(F)cc(F)c3)n2)cc(N2CCN(CC3CCCO3)CC2)c1 (centres unmarked) [Compound 914, 1-(3,5-difluorophenyl)-N-[3-methyl-5-[4-(tetrahydrofuran-2-ylmethyl)piperazin-1-yl]phenyl]-1,2,4-triazol-3-amine] | 10 to 100 | ≤ 1 |
| Cc1cc(Nc2ncn(-c3cc(F)cc(F)c3)n2)c(F)c(NC2COC2)c1 [Compound 915, N3-[1-(3,5-difluorophenyl)-1,2,4-triazol-3-yl]-2-fluoro-5-methyl-N1-(oxetan-3-yl)benzene-1,3-diamine] | 1 to 10 | ≤ 1 |
| [2H]C1([2H])NC([2H])([2H])C([2H])([2H])N(c2cc(C)cc(Nc3ncn(-c4cc(F)cc(F)c4)n3)c2)C1([2H])[2H] [Compound 916, 1-(3,5-difluorophenyl)-N-[3-methyl-5-(2,2,3,3,5,5,6,6-octadeuteriopiperazin-1-yl)phenyl]-1,2,4-triazol-3-amine] | 10 to 100 | ≤ 1 |
| CCC1CN(CCNc2cc(C)cc(Nc3ncn(-c4cc(F)cc(F)c4)n3)c2)CCO1 (centres unmarked) [Compound 917, N3-[1-(3,5-difluorophenyl)-1,2,4-triazol-3-yl]-N1-[2-(2-ethylmorpholin-4-yl)ethyl]-5-methyl-benzene-1,3-diamine] | 10 to 100 | ≤ 1 |
| Cc1cc(Nc2ncn(-c3cc(F)cc(F)c3)n2)cc(NC2CCOC(C3CC3)C2)c1 (centres unmarked) [Compound 918, N1-(2-cyclopropyltetrahydropyran-4-yl)-N3-[1-(3,5-difluorophenyl)-1,2,4-triazol-3-yl]-5-methyl-benzene-1,3-diamine] | 1 to 10 | ≤ 1 |
| Cc1cc(Nc2ncn(-c3cc(F)cc(F)c3)n2)cc(N2CC(N3CCOCC3)CC2C)c1 (centres unmarked) [Compound 920, 1-(3,5-difluorophenyl)-N-[3-methyl-5-(2-methyl-4-morpholino-pyrrolidin-1-yl)phenyl]-1,2,4-triazol-3-amine] | 10 to 100 | ≤ 1 |
| Cc1cc(Nc2ncn(-c3cc(F)cc(F)c3)n2)cc(N2CC(CC#N)C2)c1 [Compound 921, 2-[1-[3-[[1-(3,5-difluorophenyl)-1,2,4-triazol-3-yl]amino]-5-methyl-phenyl]azetidin-3-yl]acetonitrile] | 10 to 100 | 1 to 10 |
| [2H]C1([2H])N(CCO)C([2H])([2H])C([2H])([2H])N(c2cc(C)cc(Nc3ncn(-c4cc(F)cc(F)c4)n3)c2)C1([2H])[2H] [Compound 922, 2-[2,2,3,3,5,5,6,6-octadeuterio-4-[3-[[1-(3,5-difluorophenyl)-1,2,4-triazol-3-yl]amino]-5-methyl-phenyl]piperazin-1-yl]ethanol] | 1 to 10 | ≤ 1 |
| CC(=O)OCC(COC(C)=O)N1CCN(c2cc(C)cc(Nc3ncn(-c4cc(F)cc(F)c4)n3)c2F)CC1 [Compound 923, [3-acetoxy-2-[4-[3-[[1-(3,5-difluorophenyl)-1,2,4-triazol-3-yl]amino]-2-fluoro-5-methyl-phenyl]piperazin-1-yl]propyl] acetate] | 10 to 100 | 1 to 10 |
| Cc1cc(Nc2ncn(-c3cc(F)cc(F)c3)n2)cc(N2CCN(C3CCN(C)CC3)C(C)C2)c1 (centres unmarked) [Compound 925, 1-(3,5-difluorophenyl)-N-[3-methyl-5-[3-methyl-4-(1-methyl-4-piperidyl)piperazin-1-yl]phenyl]-1,2,4-triazol-3-amine] | 1 to 10 | ≤ 1 |
| [2H]C1([2H])N(c2cc(C)cc(Nc3ncn(-c4cc(F)cc(F)c4)n3)c2)C([2H])([2H])C([2H])([2H])N(C2CCCOC2)C1([2H])[2H] (centres unmarked) [Compound 926, 1-(3,5-difluorophenyl)-N-[3-methyl-5-(2,2,3,3,5,5,6,6-octadeuterio-4-tetrahydropyran-3-yl-piperazin-1-yl)phenyl]-1,2,4-triazol-3-amine] | 10 to 100 | 1 to 10 |
